Earlier results in US11103497B2, “Treatment of imatinib resistant leukemia” (Wyeth LLC, priority 2007, dated 2021).

Assays:
chronic myeloid leukemia = conditions: patients with chronic myeloid leukemia; cited from earlier work
CML cells = conditions: in culture; cited from earlier work
CML tumors = conditions: nude mice; cited from earlier work

## Cc1ccc(NC(=O)c2ccc(CN3CCN(C)CC3)cc2)cc1Nc1nccc(-c2cccnc2)n1 [Imatinib]
Chronic myeloid leukemia
  5-year survival rate: ~90%
CML cells
  toxicity to CML cells: toxic
CML tumors
  regression of CML tumors: causes regression
